According to PubChem BioAssay AID1919003 (Molecular Pharmacology Branch, DTP, NCI, 2023):

Test system: 786-0 complex spheroids with HUVEC/MSC, growth % test/control
Assay: Anticancer human tumor 786-0 cell line growth inhibition [AhR];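 also: compound exposure lasted seven days before the read-out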
Details: for IC50: curve of first compound; for viability, T/C: stronger effect = lower value
How it was run: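 Complex tumor spheroids co-cultured with HUVEC and human MSC stroma; AhR antagonists tested in combination with standard-of-care and investigational agents. Top concentration at or near clinical Cmax (else 10 microM), half-log dilutions; growth expressed as percent test/control.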

[1] = second compound 0.1 µM, first compound 0.000949 µM
[2] = second compound 0.1 µM, first compound 0.003 µM
[3] = second compound 0.1 µM, first compound 0.00949 µM
[4] = second compound 0.1 µM, first compound 0.03 µM
[5] = second compound 0.1 µM, first compound 0.0949 µM
[6] = second compound 0.1 µM, first compound 0.3 µM
[7] = second compound 0.316 µM, first compound 0.000949 µM
[8] = second compound 0.316 µM, first compound 0.003 µM
[9] = second compound 0.316 µM, first compound 0.00949 µM
[10] = second compound 0.316 µM, first compound 0.03 µM
[11] = second compound 0.316 µM, first compound 0.0949 µM
[12] = second compound 0.316 µM, first compound 0.3 µM
[13] = second compound 1 µM, first compound 0.000949 µM
[14] = second compound 1 µM, first compound 0.003 µM
[15] = second compound 1 µM, first compound 0.00949 µM
[16] = second compound 1 µM, first compound 0.03 µM
[17] = second compound 1 µM, first compound 0.0949 µM
[18] = second compound 1 µM, first compound 0.3 µM
[19] = second compound 3.16 µM, first compound 0.000949 µM
[20] = second compound 3.16 µM, first compound 0.003 µM
[21] = second compound 3.16 µM, first compound 0.00949 µM
[22] = second compound 3.16 µM, first compound 0.03 µM
[23] = second compound 3.16 µM, first compound 0.0949 µM
[24] = second compound 3.16 µM, first compound 0.3 µM
[25] = second compound 10 µM, first compound 0.000949 µM
[26] = second compound 10 µM, first compound 0.003 µM
[27] = second compound 10 µM, first compound 0.00949 µM
[28] = second compound 10 µM, first compound 0.03 µM
[29] = second compound 10 µM, first compound 0.0949 µM
[30] = second compound 10 µM, first compound 0.3 µM
[31] = second compound 0.1 µM, first compound 0.0316 µM
[32] = second compound 0.1 µM, first compound 0.1 µM
[33] = second compound 0.1 µM, first compound 0.316 µM
[34] = second compound 0.1 µM, first compound 1 µM
[35] = second compound 0.1 µM, first compound 3.16 µM
[36] = second compound 0.1 µM, first compound 10 µM
[37] = second compound 0.316 µM, first compound 0.0316 µM
[38] = second compound 0.316 µM, first compound 0.1 µM
[39] = second compound 0.316 µM, first compound 0.316 µM
[40] = second compound 0.316 µM, first compound 1 µM
[41] = second compound 0.316 µM, first compound 3.16 µM
[42] = second compound 0.316 µM, first compound 10 µM
[43] = second compound 1 µM, first compound 0.0316 µM
[44] = second compound 1 µM, first compound 0.1 µM
[45] = second compound 1 µM, first compound 0.316 µM
[46] = second compound 1 µM, first compound 1 µM
[47] = second compound 1 µM, first compound 3.16 µM
[48] = second compound 1 µM, first compound 10 µM
[49] = second compound 3.16 µM, first compound 0.0316 µM
[50] = second compound 3.16 µM, first compound 0.1 µM
[51] = second compound 3.16 µM, first compound 0.316 µM
[52] = second compound 3.16 µM, first compound 1 µM
[53] = second compound 3.16 µM, first compound 3.16 µM
[54] = second compound 3.16 µM, first compound 10 µM
[55] = second compound 10 µM, first compound 0.0316 µM
[56] = second compound 10 µM, first compound 0.1 µM
[57] = second compound 10 µM, first compound 0.316 µM
[58] = second compound 10 µM, first compound 1 µM
[59] = second compound 10 µM, first compound 3.16 µM
[60] = second compound 10 µM, first compound 10 µM

CC(C)CC(NC(=O)C(Cc1ccccc1)NC(=O)c1cnccn1)B(O)O (stereo not given) + Cc1ccccc1N=Nc1ccc(NC(=O)c2ccnn2C)c(C)c1
IC50 (second compound 0.1 µM): 18.3 nM
IC50 (second compound 0.316 µM): 17.9 nM
IC50 (second compound 1 µM): 17.4 nM
IC50 (second compound 3.16 µM): 17.6 nM
IC50 (second compound 10 µM): 17.2 nM
viability, T/C [1]: 96.9%
viability, T/C [2]: 103%
viability, T/C [3]: 103%
viability, T/C [4]: 11.9%
viability, T/C [5]: 0.85%
viability, T/C [6]: 0.51%
viability, T/C [7]: 103%
viability, T/C [8]: 110%
viability, T/C [9]: 98.6%
viability, T/C [10]: 10.4%
viability, T/C [11]: 4.46%
viability, T/C [12]: 0.43%
viability, T/C [13]: 106%
viability, T/C [14]: 107%
viability, T/C [15]: 92.4%
viability, T/C [16]: 11.7%
viability, T/C [17]: 0.98%
viability, T/C [18]: 2%
viability, T/C [19]: 98.9%
viability, T/C [20]: 96.1%
viability, T/C [21]: 104%
viability, T/C [22]: 7.1%
viability, T/C [23]: 0.92%
viability, T/C [24]: 0.45%
viability, T/C [25]: 104%
viability, T/C [26]: 106%
viability, T/C [27]: 80.3%
viability, T/C [28]: 21.8%
viability, T/C [29]: 1.78%
viability, T/C [30]: 1.25%

CCc1c2c(nc3ccc(O)cc13)-c1cc3c(c(=O)n1C2)COC(=O)[C@]3(O)CC + Cc1ccccc1N=Nc1ccc(NC(=O)c2ccnn2C)c(C)c1
IC50 (second compound 0.1 µM): 6.1 nM
IC50 (second compound 0.316 µM): 6.33 nM
IC50 (second compound 1 µM): 6.39 nM
IC50 (second compound 3.16 µM): 6.1 nM
IC50 (second compound 10 µM): 5.18 nM
viability, T/C [1]: 106%
viability, T/C [2]: 96.2%
viability, T/C [3]: 21.1%
viability, T/C [4]: 9.38%
viability, T/C [5]: 3.43%
viability, T/C [6]: 4.01%
viability, T/C [7]: 107%
viability, T/C [8]: 106%
viability, T/C [9]: 19.7%
viability, T/C [10]: 9.77%
viability, T/C [11]: 4.26%
viability, T/C [12]: 3.54%
viability, T/C [13]: 101%
viability, T/C [14]: 102%
viability, T/C [15]: 22.9%
viability, T/C [16]: 10.2%
viability, T/C [17]: 4.47%
viability, T/C [18]: 2.91%
viability, T/C [19]: 98.1%
viability, T/C [20]: 95.6%
viability, T/C [21]: 21.6%
viability, T/C [22]: 8.98%
viability, T/C [23]: 4.32%
viability, T/C [24]: 3.54%
viability, T/C [25]: 89.7%
viability, T/C [26]: 78.8%
viability, T/C [27]: 18.1%
viability, T/C [28]: 8.91%
viability, T/C [29]: 4.41%
viability, T/C [30]: 3.24%

Nc1ccccc1NC(=O)c1ccc(CNC(=O)OCc2cccnc2)cc1 + Cc1ccccc1N=Nc1ccc(NC(=O)c2ccnn2C)c(C)c1
IC50 (second compound 0.1 µM): 7060 nM
IC50 (second compound 0.316 µM): 7470 nM
IC50 (second compound 1 µM): 7200 nM
IC50 (second compound 3.16 µM): 6610 nM
IC50 (second compound 10 µM): 5760 nM
viability, T/C [31]: 104%
viability, T/C [32]: 99.1%
viability, T/C [33]: 120%
viability, T/C [34]: 103%
viability, T/C [35]: 94.2%
viability, T/C [36]: 30.8%
viability, T/C [37]: 114%
viability, T/C [38]: 103%
viability, T/C [39]: 106%
viability, T/C [40]: 115%
viability, T/C [41]: 105%
viability, T/C [42]: 31.1%
viability, T/C [43]: 105%
viability, T/C [44]: 111%
viability, T/C [45]: 105%
viability, T/C [46]: 104%
viability, T/C [47]: 94.3%
viability, T/C [48]: 32%
viability, T/C [49]: 88.1%
viability, T/C [50]: 90.6%
viability, T/C [51]: 92.2%
viability, T/C [52]: 80.8%
viability, T/C [53]: 91.4%
viability, T/C [54]: 28.2%
viability, T/C [55]: 88.5%
viability, T/C [56]: 91.7%
viability, T/C [57]: 99.2%
viability, T/C [58]: 91.2%
viability, T/C [59]: 75.8%
viability, T/C [60]: 26.3%

O=C(c1cc(Cc2n[nH]c(=O)c3ccccc23)ccc1F)N1CCN(C(=O)C2CC2)CC1 + Cc1ccccc1N=Nc1ccc(NC(=O)c2ccnn2C)c(C)c1
IC50 (second compound 0.1 µM): > 10000 nM
IC50 (second compound 0.316 µM): > 10000 nM
IC50 (second compound 1 µM): > 10000 nM
IC50 (second compound 3.16 µM): > 10000 nM
IC50 (second compound 10 µM): > 10000 nM
viability, T/C [31]: 101%
viability, T/C [32]: 105%
viability, T/C [33]: 99.8%
viability, T/C [34]: 104%
viability, T/C [35]: 97%
viability, T/C [36]: 104%
viability, T/C [37]: 97.1%
viability, T/C [38]: 101%
viability, T/C [39]: 107%
viability, T/C [40]: 106%
viability, T/C [41]: 107%
viability, T/C [42]: 101%
viability, T/C [43]: 100%
viability, T/C [44]: 101%
viability, T/C [45]: 104%
viability, T/C [46]: 97.1%
viability, T/C [47]: 107%
viability, T/C [48]: 99.1%
viability, T/C [49]: 94.6%
viability, T/C [50]: 97.9%
viability, T/C [51]: 99.5%
viability, T/C [52]: 97.3%
viability, T/C [53]: 106%
viability, T/C [54]: 94.4%
viability, T/C [55]: 98.2%
viability, T/C [56]: 93.8%
viability, T/C [57]: 102%
viability, T/C [58]: 94.9%
viability, T/C [59]: 88.1%
viability, T/C [60]: 87.5%
